Here are results for one compound from patent US20260355169A1, “METHODS OF TREATING CANCERS USING ISOQUINOLINE OR 6-AZA-QUINOLINE DERIVATIVES” (Black Diamond Therapeutics, Inc., priority 2022, published 2026).

SMILES strings stand for the structures.

Data set [1] relates to KRAS G12D patient-derived NSCLC tumor. As to the kind of experiment: Combination with binimetinib in mice with KRAS G12D NSCLC PDX model. It is filed as in vivo, Nu/Nu mice. The settings on record: 50 days, oral gavage; monotherapy or combination. The protocol:
(§1) Anti-tumor activity of a compound of the present disclosure in combination with binimetinib was investigated in mice with KRAS G12D NSCLC patient-derived xenograft (PDX) model. Nu/Nu mice implanted with KRAS G12D patient-derived NSCLC tumor were randomized to control or treatment group when the overall average tumor mean volume was 172 mm^3. Mice were administered twice daily approximately 12 hours apart with vehicle, twice daily approximately 12 hours apart with binimetinib, and once daily with the compound of the present disclosure, or the combination for 50 days by oral gavage. […] For representative results of the study, see FIG. 2.

Data set [2] deals with A375-Luc melanoma cells. As to the kind of experiment: Combination with binimetinib in mice with A375-Luc melanoma (BRAF V600E). It is filed as in vivo, BALB/c nude mice. The settings on record: 35 days, oral gavage; monotherapy or combination. The procedure: as §1, with “was also” for “was”, “with melanoma cell line with BRAF V600E mutation. BALB/c nude” for “with KRAS G12D NSCLC patient-derived xenograft (PDX) model. Nu/Nu”, “with A375-Luc melanoma cells” for “with KRAS G12D patient-derived NSCLC tumor”, “was 224” for “was 172”, “for 35” for “for 50”, “FIG. 3.” for “FIG. 2.”

Regarding `Cn1cnc2c(F)c(Nc3ccc(Br)cc3F)c(C(=O)NOCCO)cc21` [binimetinib], the body weight loss entry in data set [1] and in data set [2] was “No significant body weight loss” in each case.
